Experimental data published in patent publication US10781181B2, “N-((het) arylmethyl)-heteroaryl-carboxamides compounds as plasma kallikrein inhibitors” (Kalvista Pharmaceuticals Limited, priority 2014, dated 2020).

Key:
Human plasma kallikrein = Human plasma kallikrein (Homo sapiens (Human), UniProt P03952); test: Determination of the IC50 for plasma kallikrein; type: biochemical; conditions: read-out: IC50 (human PKal)
Protocol: Determination of the IC50 for Plasma Kallikrein
(§1) Human plasma kallikrein (Protogen) was incubated at 25° C. with the fluorogenic substrate H-DPro-Phe-Arg-AFC and various concentrations of the test compound. Residual enzyme activity (initial rate of reaction) was determined by measuring the change in […] at 410 nm and the IC50 value for the test compound was determined.

Human KLK1 = Human KLK1 (Homo sapiens (Human), UniProt P06870); test: Determination of the IC50 for KLK1; type: biochemical; conditions: human KLK1, 25° C., substrate H-DVal-Leu-Arg-AFC
Human KLK1, sequence (P06870 25-262): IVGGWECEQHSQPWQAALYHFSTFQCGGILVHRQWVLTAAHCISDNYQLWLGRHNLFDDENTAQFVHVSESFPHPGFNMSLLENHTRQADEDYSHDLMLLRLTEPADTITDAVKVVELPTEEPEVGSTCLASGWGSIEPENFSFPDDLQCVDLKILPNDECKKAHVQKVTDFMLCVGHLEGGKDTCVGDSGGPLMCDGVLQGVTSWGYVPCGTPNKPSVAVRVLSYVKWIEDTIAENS
Protocol: Determination of the IC50 for KLK1
as §1, with “KLK1 (Callbiochem)” for “plasma kallikrein (Protogen)”, “H-DVal-Leu-Arg-AFC” for “H-DPro-Phe-Arg-AFC”

Human FXIa = Human FXIa (Homo sapiens (Human), UniProt P03951); test: Determination of the % inhibition for FXIa; type: biochemical; conditions: 40 μM of the test compound, human FXIa, 25° C.; read-out: % Inhibition @ 40 μM (human FXIa)
Human FXIa, sequence (P03951 388-625 limits assumed): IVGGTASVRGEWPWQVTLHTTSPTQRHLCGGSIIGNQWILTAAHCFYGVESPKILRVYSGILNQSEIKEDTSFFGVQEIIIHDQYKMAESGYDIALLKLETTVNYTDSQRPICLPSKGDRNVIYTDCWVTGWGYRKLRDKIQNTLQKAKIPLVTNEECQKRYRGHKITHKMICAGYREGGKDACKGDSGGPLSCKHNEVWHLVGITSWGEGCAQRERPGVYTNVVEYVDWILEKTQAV
Human FXIa, sequence (P03951 19-387 partner limits assumed): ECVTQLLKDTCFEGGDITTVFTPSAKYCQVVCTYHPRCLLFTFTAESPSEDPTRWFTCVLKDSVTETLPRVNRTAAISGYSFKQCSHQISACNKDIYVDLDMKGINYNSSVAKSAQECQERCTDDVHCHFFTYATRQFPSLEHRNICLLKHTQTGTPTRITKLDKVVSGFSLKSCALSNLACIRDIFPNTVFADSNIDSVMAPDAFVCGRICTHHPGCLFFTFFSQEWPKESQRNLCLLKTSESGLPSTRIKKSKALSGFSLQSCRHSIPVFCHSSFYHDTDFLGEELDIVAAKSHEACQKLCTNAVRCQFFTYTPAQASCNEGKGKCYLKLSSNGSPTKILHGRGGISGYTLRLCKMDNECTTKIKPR
Protocol: Determination of the % Inhibition for FXIa
Human FXIa (Enzyme Research Laboratories) was incubated at 25° C. with the fluorogenic substrate Z-Gly-Pro-Arg-AFC and 40 μM of the test compound. Residual enzyme activity (initial rate of reaction) was determined by measuring the change in […].

[1] = Pharmacokinetics following a single oral dose in rats; type: in vivo; conditions: rat, male Sprague-Dawley rats, nominal 10 mg/kg in 10% DMSO/10% cremophor/80% SWFI, plasma, actual dose 7.6 mg/kg (Example 115), 8.4 mg/kg (Example 85)
Protocol: Pharmacokinetic studies of the compounds in Table 15 were performed to assess the pharmacokinetics following a single oral dose in male Sprague-Dawley rats. Two rats were given a single po dose of 5 mL/kg of a nominal 2 mg/mL (10 mg/kg) composition of test compound in 10% DMSO/10% cremophor/80% SWFI. Following dosing, blood samples were collected over a period of 24 hours. Sample times were 5, 15 and 30 minutes then 1, 2, 4, 6, 8 and 12 hours. Following collection, blood samples were centrifuged and the plasma fraction analysed for concentration of test compound by LCMS.

Human plasma kallikrein, sequence (P03952 391-638): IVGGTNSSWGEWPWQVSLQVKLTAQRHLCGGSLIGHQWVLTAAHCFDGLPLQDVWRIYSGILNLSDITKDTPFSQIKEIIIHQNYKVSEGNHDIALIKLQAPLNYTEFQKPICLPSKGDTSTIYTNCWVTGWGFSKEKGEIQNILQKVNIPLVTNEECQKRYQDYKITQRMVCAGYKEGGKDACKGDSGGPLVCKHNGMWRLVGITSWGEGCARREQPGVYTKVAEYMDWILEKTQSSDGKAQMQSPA
Human plasma kallikrein, sequence (P03952 20-390 partner): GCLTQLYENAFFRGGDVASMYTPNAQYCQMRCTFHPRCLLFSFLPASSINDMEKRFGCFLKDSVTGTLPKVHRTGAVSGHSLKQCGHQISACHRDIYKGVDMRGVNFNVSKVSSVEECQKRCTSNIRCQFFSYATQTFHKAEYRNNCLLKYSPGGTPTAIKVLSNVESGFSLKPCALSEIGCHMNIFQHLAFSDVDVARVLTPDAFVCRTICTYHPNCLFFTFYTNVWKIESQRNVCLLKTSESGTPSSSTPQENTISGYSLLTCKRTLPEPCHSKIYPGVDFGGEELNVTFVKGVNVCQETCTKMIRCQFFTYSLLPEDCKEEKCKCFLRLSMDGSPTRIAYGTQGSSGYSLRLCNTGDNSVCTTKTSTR

IC50 (Human plasma kallikrein): 3.5 nM | IC50 (Human KLK1): > 40000 nM | inhibition at 40 µM (Human FXIa): 1% | Cmax [1]: 228 ng/mL | Tmax [1]: 45 min
SMILES: Cc1cccn(Cc2ccc(Cn3cc(C(=O)NCCOc4cccc(Cl)c4)c(N)n3)cc2)c1=O [Example 85, 3-amino-N-[2-(3-chlorophenoxy)ethyl]-1-({4-[(3-methyl-2-oxopyridin-1-yl)methyl]phenyl}methyl)pyrazole-4-carboxamide]
